Patent US20100093536A1, “CONTROL OF GRASSY WEEDS WITH VINYLGLYCINES AND VINYLGLYCINE-PRODUCING ORGANISMS” (THE STATE OF OREGON ACTING BY AND THROUGH THE STATE BOARD …, priority 2008, published 2010)
Entries after “also recorded” stand apart in the source; their conditions may differ.

Tests used:
[1] = system: Poa annua (annual bluegrass) seeds; test: Standard GAF Bioassay System (Standard Poa Bioassay), seed germination scored after 7 days; type: in vivo; design: key to GERMINATION SCORE IN THE POA BIOASSAY (±Standard Error of the Mean) / GERMINATION SCORE (±Standard Error of the Mean): germination score, 0 = no germination to 4.0 = first true leaf emerged; details: for GAF-like activity in the Standard Poa Bioassay System, in words: pure compounds; for GERMINATION SCORE: purified GAF
Description: The seed of Poa annua (or other test seeds) were surface-sterilized by placing two to five grams of seeds in a 50 ml glass beaker, covering the seeds with a 50% (v/v) solution of H2SO4, and stirring vigorously for 5 minutes. The seed/acid mixture was filtered through a Gooch crucible and repeatedly rinsed with tap water to remove residual acid. The seeds were then placed in a beaker and covered with bleach (Clorox®, NaOCl, 5.25%) containing 1% (v/v) polyoxethylene sorbitan monolaurate (Tween®-20). The seeds were stirred for 5 minutes and then repeatedly rinsed with sterile deionized water and placed in a sterile Petri dish. The seeds were used immediately while wet or dried (spread in a thin layer and allowed to dry under a laminar flow hood with the Petri dish lid ajar for 4 to 8 hours) to prevent premature germination.
Bioassays for GAF activity were performed with Poa annua (annual bluegrass) seeds unless otherwise indicated. For each concentration of each test solution, 200 μl aliquots of solution were distributed to each of three wells of a sterile Costar® forty-eight well tissue culture plate (Corning® Costar® Number 3548). Three surface-sterilized Poa annua seeds were aseptically transferred to each well and submerged in the liquid, providing a total of nine observations for each concentration of each solution tested. The lid of the tissue culture plate was sealed with Parafilm® and the plate was placed in a germinator at 20° C. (8 hour day length at a light intensity of 50 μmol/m^2/s, 16 hour dark period) for seven days. Germination was scored on the basis of the following four-point system: • Score 0: No visible signs of germination. • Score 0.5: Seed coat split but plumule and coleorhiza are not visible. • Score 1.0: Plumule and coleorhiza visible. Plumule chlorotic and shorter than length of seed. Root not yet visible. • Score 1.5: Plumule still shorter than length of seed, but root is clearly visible. • Score 2.0: Plumule approximately equal in length to the seed. Root elongated. • Score 2.5: Plumule obviously longer than length of seed. First true leaf still enclosed in coleoptile. • Score 3.0: First true leaf emerged from coleoptile and green. Emerged portion of the leaf is obviously shorter than the coleoptile. • Score 3.5: First true leaf emerged from coleoptile and green. Emerged portion of the leaf is approximately equal in length to the coleoptile. • Score 4.0: First true leaf emerged from coleoptile and green. Emerged portion of the leaf is obviously longer than the coleoptile.

[2] = system: Poa annua seeds; test: Soil-based test with established perennial ryegrass seedlings: germination of Poa annua seeds; type: in vivo; details: sprayed twice with 50 mL in 0.1% Tween 20, evaluated 12 days after first treatment
Description: (§1) Soil-based tests for GAF activity were performed as follows: Woodburn sandy loam obtained from a Willamette Valley site was used in all soil-based experiments. The soil was dried for two days at 100° F. and screened through a ⅛-inch mesh prior to use. All flats were lined with black ground cloth. Small half-flats (25×25 cm) were filled with 1200 grams of soil. Larger flats (25×50 cm) were filled with 2500 grams of soil. The soil in the flats was fully saturated with water and left to drain in a greenhouse mist chamber for two days prior to seeding.
(§2) Soil-based tests involving both Poa annua seeds and established perennial ryegrass (Lolium perenne) seedlings were conducted in full sized flats (25×50 cm). After preparation of the soil as described above, five rows of perennial ryegrass seed (0.19 grams seed/row) were planted parallel to the short axis of the flat. The flats were placed in a mist chamber in the greenhouse for one week, and then transferred to a greenhouse bench where they were watered once or twice daily (as needed) with a fogging nozzle for the next 13 days. The ryegrass seedlings were fertilized at the end of the first week on the greenhouse bench. […] The treatments were evaluated and photographic records taken 12 days after the initial treatment (14 days from seeding with Poa annua). […]

[3] = system: established perennial ryegrass (Lolium perenne) seedlings; test: Soil-based test with established perennial ryegrass seedlings: tolerance of the ryegrass; type: in vivo; details: at a concentration that arrested germination of Poa annua seeds
Description: as §1, §2

[4] = system: Poa annua seeds; test: Soil-based test for GAF activity, Poa annua only; type: in vivo; details: sprayed twice with 50 mL in 0.1% Tween 20, evaluated 12 days after first treatment
Description: as §1
Soil-based tests involving only Poa annua (annual bluegrass) were conducted in half-flats. A frame covering ½- inch around the margins of the flat was placed on the soil surface, and the soil area within the frame was seeded with 0.3 grams of Poa annua seeds (leaving a ½-inch unseeded border). The seeds were sprayed lightly with distilled water and placed in a growth chamber set at 20° C. with a photoperiod consisting of 8-hour days (50 μEinsteins) and 16-hour nights. […] The treatments were evaluated and photographic records taken 12 days after the initial treatment (14 days from seeding). […]
The effect of AVG on germination of seeds of Poa annua also was determined in a soil-based system using the protocol previously described. […]
The effect of AOA on the germination of Poa annua also was determined in a soil-based system. […]

[5] = system: seeds of grassy weeds and cultivated grasses; test: Germination arrest / herbicidal activity against grassy weeds (general statements); details: in vivo
[6] = system: seeds of cereals (wheat and barley) and dicots; test: Germination of seeds of cereals and dicots in presence of GAF; type: in vivo; details: compared with seeds of grass species
[7] = cited from earlier work
[8] = system: Established seedlings; test: Sensitivity of established seedlings to GAF; details: in vivo
[9] = Solubility of GAF in organic solvents; type: physicochemical
Description: Further characterization of GAF described its size and solubility, as well as the stability of its activity over time and under varying temperature and pH conditions (see Banowetz et al., Biological Control, 50: 103-110, 2009; which is hereby incorporated by reference). […] GAF activity in culture filtrates stored at 4° C. diminishes over time, with 10% activity remaining after 17 months.
We have termed this compound a Germination Arrest Factor (GAF), and we have identified this compound as 2-amino-4-formylaminooxy-but-3-enoic acid (also called 2-amino-4-formylaminooxyvinylglycine). The presence of this compound in culture filtrates of Pseudomonas can be assessed by extraction and chromatography procedures described in Example 1. […] Moreover, GAF has particular chromatographic properties that allow it to be detected in the culture filtrates of GAF-producing organisms as a distinctive ninhydrin-staining band located at a particular position on thin-layer chromatography plates when the extraction and chromatography protocols specified here are followed. […] The presence of a DNA sequence that codes for an open reading frame that is distinctive for a particular putative formyl-transferase.

[10] = exposure limited to a few hours

| SMILES | GERMINATION SCORE IN THE POA BIOASSAY (±Standard Error of the Mean) ([1]; concentration tested 0.03 mM) | GERMINATION SCORE IN THE POA BIOASSAY (±Standard Error of the Mean) ([1]; concentration tested 0.1 mM) | GERMINATION SCORE IN THE POA BIOASSAY (±Standard Error of the Mean) ([1]; concentration tested 0.3 mM) | GERMINATION SCORE IN THE POA BIOASSAY (±Standard Error of the Mean) ([1]; concentration tested 1.0 mM) | GERMINATION SCORE IN THE POA BIOASSAY (±Standard Error of the Mean) ([1]; concentration tested 3.0 mM) | GERMINATION SCORE IN THE POA BIOASSAY (±Standard Error of the Mean) ([1]; concentration tested 10.0 mM) | GERMINATION SCORE IN THE POA BIOASSAY (±Standard Error of the Mean) ([1]; concentration tested 30.0 mM) | GAF-like activity in the Standard Poa Bioassay System, in words [1] | germination of Poa annua seeds seeded between rows of established ryegrass [2] | effect on established perennial ryegrass seedlings [3] | effect on germination of seeds of Poa annua in a soil-based system [4] | also measured |
| --- | --- | --- | --- | --- | --- | --- | --- | --- | --- | --- | --- | --- |
| NOCC(=O)O [AOA, 2-Aminooxyacetic acid, reference compound] | 2.5 ± 0.1 | 1.7 ± 0.1 | 1.2 ± 0.1 | 1.0 ± 0.0 | 1.0 ± 0.0 | 1.0 ± 0.0 | 0.9 ± 0.1 | arrested the germination | arrested as expected | some damage was evident | arrested germination | – |
| NCCOC=CC(N)C(=O)O (stereo not drawn) [AVG, 2-amino-4-aminoethoxy-but-3-enoic acid, reference compound] | 2.3 ± 0.1 | 1.3 ± 0.1 | 1.0 ± 0.0 | 1.0 ± 0.0 | 1.0 ± 0.0 | 1.0 ± 0.0 | 0.9 ± 0.1 | arrested the germination | completely arrested germination | little if any effect | arrest germination | – |
| NC(/C=C/ONC=O)C(=O)O (stereo not drawn) [GAF, 2-amino-4-formylaminooxy-but-3-enoic acid] | – | – | – | – | – | – | – | – | – | – | – | activity against grassy weeds, in words [5]: irreversibly arrests the germination; germination of seeds of cereals (wheat and barley) and dicots [6]: much less sensitive to GAF; POA BIOASSAY SCORES (±Standard Error of the Mean) ([1]; GAF Conc. 2X (relative to culture filtrate), partially purified GAF, metal 0 μM): 1.00 ± 0.00; activity of GAF in arresting germination in the presence of copper ions ([1]; appropriate concentrations of copper ions): greatly reduced; GERMINATION SCORE ([1]; pooled Sephadex G15 fractions, Undiluted Pooled Volume (100%)): 1.00; GERMINATION SCORE ([1]; 1.25% Pooled Volume Concentration): 1.92; GERMINATION SCORE ([1]; 2.5% Pooled Volume Concentration): 1.00; GERMINATION SCORE ([1]; 5% Pooled Volume Concentration): 1.00; GERMINATION SCORE ([1]; 10% Pooled Volume Concentration): 1.00; GAF activity remaining ([7]; culture filtrates stored at 4° C., after 17 months): 10%; activity under basic as well as acidic conditions [7, 10]: remains active; temperature at which GAF remains active [7, 10]: up to 65 °C; sensitivity of established seedlings to GAF [8]: little if any sensitivity; solubility in organic solvents [9]: insoluble or sparingly soluble in organic solvents; also recorded: insoluble in organic solvents that are immiscible in water |
